Source: PubChem BioAssay AID2060888 (Molecular Pharmacology Branch, DTP, NCI, 2025)
One block for each molecule: values may come before it.

Test system: 695427-040-R-J1-PDC complex spheroid viability
Experiment: Anticancer human tumor 695427-040-R-J1-PDC patient-derived colon adenocarcinoma cell line growth inhibition [RAS]
Settings: for viability, T/C: stronger effect = lower value
Outline: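 Tumour cells grown as complex spheroids with HUVEC endothelial cells and mesenchymal stem cells, treated with RAS pathway inhibitor combinations. Each agent spans half-log steps from near clinical Cmax, or 10 microM where Cmax is unknown.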
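Further: viability read after seven days of drug exposure.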
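Wherever viability, T/C is given: 100% = DMSO vehicle control viability.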

IC50 (curve of first compound, second compound 0.000949 µM): 855 nM
IC50 (curve of first compound, second compound 0.003 µM): 673 nM
IC50 (curve of first compound, second compound 0.00949 µM): 581 nM
IC50 (curve of first compound, second compound 0.03 µM): < 31.6 nM
IC50 (curve of first compound, second compound 0.0949 µM): < 31.6 nM
IC50 (curve of first compound, second compound 0.3 µM): < 31.6 nM
Structure (SMILES): CC(Nc1ccc2c(c1)OCCn1cc(N3C(=O)OCC3C(F)F)nc1-2)C(N)=O (stereo not drawn) + CCn1c(-c2cc(N3CCN(C)CC3)cnc2C(C)OC)c2c3cc(ccc31)-c1csc(n1)CC(NC(=O)C1CC1C)C(=O)N1CCCC(N1)C(=O)OCC(C)(C)C2
viability, T/C (second compound 0.000949 µM, first compound 0.0316 µM): 61.4%
viability, T/C (second compound 0.000949 µM, first compound 0.1 µM): 72.4%
viability, T/C (second compound 0.000949 µM, first compound 0.316 µM): 69.7%
viability, T/C (second compound 0.000949 µM, first compound 1 µM): 47.1%
viability, T/C (second compound 0.000949 µM, first compound 3.16 µM): 39.1%
viability, T/C (second compound 0.000949 µM, first compound 10 µM): 38%
viability, T/C (second compound 0.003 µM, first compound 0.0316 µM): 100%
viability, T/C (second compound 0.003 µM, first compound 0.1 µM): 70.5%
viability, T/C (second compound 0.003 µM, first compound 0.316 µM): 59.5%
viability, T/C (second compound 0.003 µM, first compound 1 µM): 41.9%
viability, T/C (second compound 0.003 µM, first compound 3.16 µM): 45.6%
viability, T/C (second compound 0.003 µM, first compound 10 µM): 41.9%
viability, T/C (second compound 0.00949 µM, first compound 0.0316 µM): 86.2%
viability, T/C (second compound 0.00949 µM, first compound 0.1 µM): 66.2%
viability, T/C (second compound 0.00949 µM, first compound 0.316 µM): 54%
viability, T/C (second compound 0.00949 µM, first compound 1 µM): 49.8%
viability, T/C (second compound 0.00949 µM, first compound 3.16 µM): 32.2%
viability, T/C (second compound 0.00949 µM, first compound 10 µM): 25.6%
viability, T/C (second compound 0.03 µM, first compound 0.0316 µM): 45.6%
viability, T/C (second compound 0.03 µM, first compound 0.1 µM): 48.3%
viability, T/C (second compound 0.03 µM, first compound 0.316 µM): 32.2%
viability, T/C (second compound 0.03 µM, first compound 1 µM): 27.1%
viability, T/C (second compound 0.03 µM, first compound 3.16 µM): 26.6%
viability, T/C (second compound 0.03 µM, first compound 10 µM): 22.3%
viability, T/C (second compound 0.0949 µM, first compound 0.0316 µM): 35%
viability, T/C (second compound 0.0949 µM, first compound 0.1 µM): 33.3%
viability, T/C (second compound 0.0949 µM, first compound 0.316 µM): 31.4%
viability, T/C (second compound 0.0949 µM, first compound 1 µM): 19.1%
viability, T/C (second compound 0.0949 µM, first compound 3.16 µM): 21.3%
viability, T/C (second compound 0.0949 µM, first compound 10 µM): 14.6%
viability, T/C (second compound 0.3 µM, first compound 0.0316 µM): 36.1%
viability, T/C (second compound 0.3 µM, first compound 0.1 µM): 22.2%
viability, T/C (second compound 0.3 µM, first compound 0.316 µM): 24.3%
viability, T/C (second compound 0.3 µM, first compound 1 µM): 17.1%
viability, T/C (second compound 0.3 µM, first compound 3.16 µM): 14.9%
viability, T/C (second compound 0.3 µM, first compound 10 µM): 13.7%

IC50 (curve of first compound, second compound 0.00316 µM): > 10000 nM
IC50 (curve of first compound, second compound 0.01 µM): > 10000 nM
IC50 (curve of first compound, second compound 0.0316 µM): > 10000 nM
IC50 (curve of first compound, second compound 0.1 µM): > 10000 nM
IC50 (curve of first compound, second compound 0.316 µM): > 10000 nM
IC50 (curve of first compound, second compound 1 µM): > 10000 nM
Structure (SMILES): C[C@@H](NC(=O)c1ncnc(N)c1Cl)c1ncc(C(=O)Nc2cc(C(F)(F)F)c(Cl)cn2)s1 + C=CC(=O)N1CCN(c2nc(OCC3CCCN3C)nc3c(F)c(-c4nc(N)cc(C)c4C(F)(F)F)c(Cl)cc23)C(C)C1
viability, T/C (second compound 0.00316 µM, first compound 0.0316 µM): 108%
viability, T/C (second compound 0.00316 µM, first compound 0.1 µM): 109%
viability, T/C (second compound 0.00316 µM, first compound 0.316 µM): 111%
viability, T/C (second compound 0.00316 µM, first compound 1 µM): 105%
viability, T/C (second compound 0.00316 µM, first compound 3.16 µM): 99.7%
viability, T/C (second compound 0.00316 µM, first compound 10 µM): 75.2%
viability, T/C (second compound 0.01 µM, first compound 0.0316 µM): 121%
viability, T/C (second compound 0.01 µM, first compound 0.1 µM): 109%
viability, T/C (second compound 0.01 µM, first compound 0.316 µM): 114%
viability, T/C (second compound 0.01 µM, first compound 1 µM): 103%
viability, T/C (second compound 0.01 µM, first compound 3.16 µM): 96.2%
viability, T/C (second compound 0.01 µM, first compound 10 µM): 75.9%
viability, T/C (second compound 0.0316 µM, first compound 0.0316 µM): 107%
viability, T/C (second compound 0.0316 µM, first compound 0.1 µM): 99.8%
viability, T/C (second compound 0.0316 µM, first compound 0.316 µM): 104%
viability, T/C (second compound 0.0316 µM, first compound 1 µM): 101%
viability, T/C (second compound 0.0316 µM, first compound 3.16 µM): 94.4%
viability, T/C (second compound 0.0316 µM, first compound 10 µM): 75.9%
viability, T/C (second compound 0.1 µM, first compound 0.0316 µM): 113%
viability, T/C (second compound 0.1 µM, first compound 0.1 µM): 105%
viability, T/C (second compound 0.1 µM, first compound 0.316 µM): 99.8%
viability, T/C (second compound 0.1 µM, first compound 1 µM): 101%
viability, T/C (second compound 0.1 µM, first compound 3.16 µM): 98.4%
viability, T/C (second compound 0.1 µM, first compound 10 µM): 73.1%
viability, T/C (second compound 0.316 µM, first compound 0.0316 µM): 110%
viability, T/C (second compound 0.316 µM, first compound 0.1 µM): 105%
viability, T/C (second compound 0.316 µM, first compound 0.316 µM): 108%
viability, T/C (second compound 0.316 µM, first compound 1 µM): 105%
viability, T/C (second compound 0.316 µM, first compound 3.16 µM): 103%
viability, T/C (second compound 0.316 µM, first compound 10 µM): 76.6%
viability, T/C (second compound 1 µM, first compound 0.0316 µM): 108%
viability, T/C (second compound 1 µM, first compound 0.1 µM): 94.4%
viability, T/C (second compound 1 µM, first compound 0.316 µM): 103%
viability, T/C (second compound 1 µM, first compound 1 µM): 95.5%
viability, T/C (second compound 1 µM, first compound 3.16 µM): 92.6%
viability, T/C (second compound 1 µM, first compound 10 µM): 72.9%

Structure (SMILES): CC(Nc1ccc2c(c1)OCCn1cc(N3C(=O)OCC3C(F)F)nc1-2)C(N)=O (stereo not drawn)
viability, T/C (compound 0.0316 µM): 89.9% [middle of 4 runs]
viability, T/C (compound 0.1 µM): 72.5% [middle of 4 runs]
viability, T/C (compound 0.316 µM): 73.7% [middle of 4 runs]
viability, T/C (compound 10 µM): 41.9% [middle of 4 runs]

IC50 (compound alone, run of 06/10/2024): > 1000 nM
IC50 (curve of compound): > 1000 nM
Structure (SMILES): C=CC(=O)N1CCN(c2nc(OCC3CCCN3C)nc3c(F)c(-c4nc(N)cc(C)c4C(F)(F)F)c(Cl)cc23)C(C)C1 (stereo not drawn)
viability, T/C (compound 0.00316 µM): 97.3% [middle of 12 runs]
viability, T/C (compound 0.0316 µM): 100% [middle of 12 runs]
viability, T/C (compound 0.1 µM): 102% [middle of 12 runs]
